Consider one compound from paper PMC6211230, “Assessment of the antiproliferative and apoptotic roles of sulfonamide carbonic anhydrase IX inhibitors in HeLa cancer cell line” (Journal of Enzyme Inhibition and Medicinal Chemistry, 2018).

Holding throughout (type): cell-based, human
Assay [1] has as its system HeLa cells. The experiment in a line: gamma-H2AX immunofluorescence (DNA damage). As to conditions: 10 and 25 μM, 24 h. As to the method: HeLa cells (1 × 10^4/ml) were seeded in 12-well cell culture dishes and after 24 h they were administered with the sulfonamide derivative compounds at doses of 10 and 25 µM and incubated for 24 h. The cells were washed with PBS and fixed with 100% methanol at −20 °C overnight, which was followed by PBS washing three times for 10 min for each washing. The cells were treated with 0.2% Triton X-100 in a shaker, at room temperature for 5 min. They were washed with PBS, and 1% BSA-containing PBS was then added, and incubation with primary mouse monoclonal anti-γ-H2AX antibody (Cell Signalling Technology, Danvers, MA, USA) was applied at 37 °C for 1 h. The cells were washed with PBS for 5 min three times. Secondary goat anti-mouse Alexa-488-conjugated IgG (Invitrogen, Thermo Fisher Scientific, Waltham, MA, USA) was administered and the cells were incubated at 37 °C for 20 min, followed by PBS washing for 4–5 min three times. 1 ml 70% EtOH was added, and at +4 °C, released to incubation for 5 min. 1 ml 100% EtOH was added in a shaker, which was then incubated at room temperature for 1–2 min. The nucleus was stained with DAPI and the images were recorded using an Olympus Inverted fluorescence microscope (Olympus CKX 53, DP73, Tokyo, Japan).

Assay [2] has as its system HT-29. The experiment in a line: WST-1 cytotoxicity, HT-29. As to the method:
(§1) Cancer and normal cell lines were purchased from ATCC and stored in liquid nitrogen. HT-29 (colon adenoma cancer), HeLa (cervix adenoma cancer cell), MDA-MB-231 (breast adenoma cancer cell) and HEK-293 (embryonic kidney epithelial cell), PNT-1A (normal prostate cells) cell lines were incubated in DMEM: F-12 and RPMI-1640, including 10% Foetal Bovine Serum (FBS), 100 μg/mL streptomycin/100 IU/mL penicillin, at 37 °C in an incubator containing 5% CO2, 95% air in a humid atmosphere.
(§2) The cytotoxic effects of the substances were evaluated with WST-1 kits (Roche, Germany) in accordance with the manufacturer’s protocols. The cells were plated on 96-well plates (10^4 cells in each well). After incubation for 24 h, the media were discarded and the substances and Cisplatin as the control drug, at doses of 0, 2.5, 5, 10, 25, 50, 100, and 200 μM, were incubated for 24, 48, and 72 h. WST-1 reactive of 10 µl was added to all wells. Following 4 h incubation, the measurements were taken on a plate reader (Spectramax M5) at wavelengths of 450 and 630 nm. Graphs were then created and the IC50 value of each substance was calculated.

Assay [3] concerns HeLa cells. The experiment in a line: Intracellular ROS detection. Conditions: 0–25 μM. As to the method:
Intracellular free radicals were measured using the Cellular Reactive Oxygen Species Detection Assay commercial kit (Red Fluorescence, Abcam, Cambridge-UK, 186027). In this kit, a fluorescence probe that is permeable to the cell is used. When the probe reacts with ROS, it produces red fluorescence. The process was applied following kit protocol. The cells were plated on black plates, as 3 × 10^4 in 100 µl, and incubated for 24 h. Sulfonamide compounds in PBS were administered at doses of 0–25 μM and incubated at 37 °C in an atmosphere of 5% CO2 for 1 h (protected from light). After the compounds were poured out, the wells were filled with 100 µl of ROS Deep Red Working Solution and incubated at 37 °C in an atmosphere of 5% CO2 for 1 h. A fluorometry device (Spectramax, M5) Ex/Em = 650/675 nm (cut off = 665 nm) was used to take the measurements.

In assay [4] the test system is HeLa. The experiment in a line: WST-1 cytotoxicity, HeLa. The method, then: as §1, §2
(Formazan colour is commonly taken as a measure of viable cells.)

Assay [5] has as its system PNT-1A. The experiment in a line: WST-1 cytotoxicity, PNT-1A normal cells. Conditions: PNT-1A normal cell. As to the method: as §1, §2
In assay [6] the test system is HeLa cells. Put plainly: Western blot of cleaved caspases 3, 8, 9 and cleaved PARP. Conditions: most notably 10 μM, 24 h. As to the method: The cells were seeded on 6 cm^2 cell culture dishes, and treated with sulfonamide compounds, at doses of 10 and 25 μM, for 24 h. The cells were then washed with cold PBS, which was followed by lysis with RIPA lysis buffer (10 mM Tris-HC1 pH =8, 1 mM EDTA, 1 mM EGTA, 140 mM NaCl, 1% TritonX-100, 0.1 SDS, 0.1% Sodium deoxycholate), 1X phosphates and protease inhibitor (Santa Cruz Biotechnology, Dallas, USA). The acquired supernatants from the lysates which were centrifuged at 12000 g, +4 °C, for 10 min, were transferred to new tubes. Protein concentration was detected using the protein assay kit BCA (Thermo Fisher Scientific, Waltham, MA). After a 30-min period of protein (50 µg) standing in 10% SDS-PAGE gel at 50 V and at 80 V for 3 h, those were blotted to PVDF membrane at 70 V for 5 min (Bio-Rad Turbo Transfer System, Segrate (MI), Italy). After embedding in 1X TBST (12,1 gr Tris, pH 7.5, 70 gr NaCl, 0.1% Tween-20) containing 5% dry milk or 5% BSA, the primer monoclonal antibodies Cleaved Caspase 3,8,9, Cleaved PARP (Millipore) CA IX and Beta-actin, were applied to the membrane and left overnight, which was followed by washing with 1X TBS-T and an incubation period with secondary antibodies of HRP rabbit (Cell signaling, Danvers, MA, USA) or mouse (1/10.000) for 60 min. […]
On the technique in general: A western blot detects proteins with antibodies after separation by electrophoresis.

For assay [7], the system named is HeLa cells. Put plainly: Mitochondrial membrane potential (JC-1). As to conditions: 0–25 μM. The method, then: Mitochondrial membrane potential (MMP) changes appearing in the intrinsic pathway of mitochondria were spectrophotometrically detected. MMP was measured in a Spectramax, M5 fluorimetric device, at wavelengths of 490 nm (excitation), 530 nm(emission) according to the fluorometric Mitochondria Staining Kit (Sigma-Aldrich, Schnelldorf, Germany, CS0390) protocol.

What is called IC50 is the concentration that gives 50% inhibition. Low values mean greater potency in that assay, high ones weaker potency in that assay.

Take `NS(=O)(=O)c1ccc(CCN=Cc2cc(Cl)ccc2O)cc1` [Compound A-1]: in assay [1], the “nuclear γ-H2AX foci” value is given as “increase the number of nuclear γ-H2AXfoci”. Besides, the concentration for half-maximal inhibition (IC50) worked out at 299 µM in assay [2] (HT-29, 24 h); 52.6 µM in assay [2] (HT-29, 48 h); 123 µM in assay [2] (HT-29, 72 h); 28.9 µM in assay [4] (24 h); 17.4 µM in assay [4] (48 h); 13.7 µM in assay [4] (72 h). Moreover, the IC50 in assay [5] (24 h) came out at 389 µM; in assay [5] (48 h) it was 110 µM; in assay [5] (72 h), 203 µM. Also, the “intracellular ROS” value in assay [3] is given as “increase the intracellular ROS in HeLa cells in a dose-dependent manner”. The “cleaved caspase 3, 8, 9 and c-PARP protein levels” value in assay [6] is on record as “significant increase”. The “mitochondrial membrane potential (MMP)” value in assay [7] is listed as “dose-dependent decrease in MMP”.
